According to patent US20120184562A1, “1,6- AND 1,8-NAPHTHYRIDINES” (priority 2011, published 2012):
pIC50: −log10 of the molar value. Structures can show the parent of a compound that is named as a salt. Where two headings read alike, the source gives them in different places.

Experiments:
Human DYRK1B = target: T1, Human DYRK1B (Homo sapiens, UniProt Q9Y463); test: DYRK1B Kinase TR-FRET (IMAP-Tb) Assay; type: biochemical; conditions: for IC50: TR-FRET (IMAP-Tb), ATP 70 μM, 37° C., 60 minutes, average of multiple runs, read-out: Enzyme IC50 (μM) DYRK1B
T1 construct: purchased Invitrogen PR8350B (former PV4649)
Excerpt: DYRK1B Kinase TR-FRET (IMAP-Tb) Assay The kinase TR-FRET (IMAP-Tb) assay uses a fluorescence labeled substrate peptide in the kinase reaction. Upon phosphorylation by the kinase, phosphopeptide is produced, which will be detected by the binding solution provided in IMAP TR-FRET binding kit. After the completion of the kinase reaction, the reaction will be stopped by adding the binding solution containing terbium tracer. This tracer is immobilized on the surface of the IMAP beads, which also contain metal ions on the beads that bind to the phospho-groups of the products. Thus the phosphorylated product of the reaction can enter into close proximity to the tracer, producing resonance energy transfer. Due to the long lifetime of terbium (Tb) fluorescence the detection can be run in time resolved mode, which virtually eliminates fluorescence interference from assay components or compounds. The TR-FRET signal measurement from this assay, given as an IC50 measurement, is a measure of a test compound's ability to interfere with the phosphorylation of the peptide substrate, that is it inhibits the phosphorylation of the substrate peptide by DYRK1B, and is thus a measure of the test compound's ability to inhibit the activity of DYRK1B. […] Human DYRK1B: from Invitrogen. Part #PR8350B (former PV4649) • 2. Substrate Peptide: in-house synthesized: RRRFRPASPLRGPPK • 3. IMAP TR-FRET IPP Explorer Kit: from Molecular Devices. Part #R8157 • 4. Kinase Assay Buffer (KAB): 10 mM HEPES pH 7.0, 50 mM NaCl, 5 mM MgCl2, 1 mM DTT, 1 mM NaVO4, 200 μg/mL BSA (0.02%) • 5. Assay Plate: Remp polypropylene clear 384-well microplate. Cat#23490-102 • 6. Detection Plate: Costa black 384-well microplate. Cat #3710 Assay Procedure: This assay was performed as follows: • 1. Transfer 1.5 μL of 20× compound solution to each well of an assay plate. • 2. Add to each well 22.5 μL of KAB Buffer. • 3. Add to each well 3 μL of the solution of DYRK1B and ATP. […] Add to each well 3 μL of the substrate peptide. The assay concentration is 1.0 μM • 5. Incubate the assay plates at 37° C. for 60 minutes. • 6. Add 18 μL of Detection Solution (1:800 diluted Progress bead stock, 1:400 diluted Tb stock, 80% Buffer A, and 20% Buffer B) into each well of detection plates. • 7. Transfer 6 μL of assay solution from the assay plate to the detection plate. • 8. Shake detection plates for 30 minutes. • 9. Read plates in Envision with wavelength set at excitation 340 nm for Tb, emission 490 nm, and […] 520 nm. • 10. Calculation: TR-FRET Signal=(Reading at […]/Reading at 490 nM)×2000000

Human DYRK1A = target: T2, Human DYRK1A (Homo sapiens, UniProt Q13627); test: DYRK1A Kinase TR-FRET (IMAP-Tb) Assay; type: biochemical; conditions: TR-FRET (IMAP-Tb); ATP 70 μM; 37° C., 60 minutes; average of multiple runs; read-out: Enzyme IC50 (μM) DYRK1A
T2 construct: purchased Invitrogen PV3997
Excerpt: DYRK1A Kinase TR-FRET (IMAP-Tb) Assay
The kinase TR-FRET (IMAP-Tb) assay uses a fluorescence labeled substrate peptide in the kinase reaction. Upon phosphorylation by the kinase, phosphopeptide is produced, which will be detected by the binding solution provided in IMAP TR-FRET binding kit. After the completion of the kinase reaction, the reaction will be stopped by adding the binding solution containing terbium tracer. This tracer is immobilized on the surface of the IMAP beads, which also contain metal ions on the beads that bind to the phospho-groups of the products. Thus the phosphorylated product of the reaction can enter into close proximity to the tracer, producing resonance energy transfer. Due to the long lifetime of terbium (Tb) fluorescence the detection can be run in time resolved mode, which virtually eliminates fluorescence interference from assay components or compounds.
The TR-FRET signal measurement from this assay, given as an IC50 measurement, is a measure of a test compound's ability to interfere with the phosphorylation of the peptide substrate, that is it inhibits the phosphorylation of the substrate peptide by DYRK1A, and is thus a measure of the test compound's ability to inhibit the activity of DYRK1A.
• 1. Human DYRK1A: from Invitrogen. Part #PV3997 • 2. Substrate Peptide: […] • 3. IMAP TR-FRET IPP Explorer Kit: from Molecular Devices. Part #R8157 • 4. Kinase Assay Buffer (KAB): 10 mM HEPES pH 7.0, 50 mM NaCl, 5 mM MgCl2, 1 mM DTT, 1 mM NaVO4, 200 μg/mL BSA (0.02%) • 5. Assay Plate: Remp polypropylene clear 384-well microplate. […] Detection Plate: Costa black 384-well microplate. […] Transfer 1.5 μL of 20× compound solution to each well of an assay plate. • 2. Add to each well 22.5 μL of KAB Buffer. • 3. Add to each well 3 μL of the solution of DYRK1A and ATP. […] Add to each well 3 μL of the substrate peptide. The assay concentration is 1.0 μM • 5. Incubate the assay plates at 37° C. for 60 minutes. • 6. Add 18 μL of Detection Solution (1:800 diluted Progress bead stock, 1:400 diluted Tb stock, 80% Buffer A, and 20% Buffer B) into each well of detection plates. • 7. Transfer 6 μL of assay solution from the assay plate to the detection plate. • 8. Shake detection plates for 30 minutes. • 9. Read plates in Envision with wavelength set at excitation 340 nm for Tb, emission 490 nm, and […].

[1] = test system: SW620 human colon cancer cells; test: SW620 Cell Viability Assay; type: cell-based; conditions: SW-620, 96 h, 4 days incubation, CellTiter-Glo Luminescent Cell Viability Assay, read-out: Cellular EC50 (μM) SW620
Procedure: SW620 Cell Viability Assay
1. Cell Plate Preparation: SW620 human colon cancer cells (known to express DYRK1B), obtained from ATCC, were seeded into 96-well plates at 3×10^3 cells/well in 50 μL of media. • Harvested the required number of cells (counts & viability determined by Guava Viacount). • Centrifuge cells to pellet and removed supernant. • Resuspended in growth media (50 μL/well) & pipetted thoroughly to break up clumps. • Setup for ˜100 wells/plate, therefore, VT=5 mL/plate @ […]. 1A. Some cells (S—) were allowed to attach for 24 hrs, serum starved for 48 hrs, and then followed with drug treatments. Test compound solution were prepared in regular corresponding media supplemented with serum. 2. Test Compound Preparation: Test compounds were solubilized in either DMSO or media and prepared at various stock concentrations. • All compounds were incubated at 37° C. for 30 minutes and vortexed. • (5 mM stocks of test compound were prepared for non-soluble compounds)
• The 10 mM test compound stock was diluted to a concentration of 100× the final Cmax concentration. • Then the test compound stock is diluted 50-fold in media and/or second compound for a final Cmax concentration in the test compound plate. • The Cmax in the test compound plate (2% DMSO) is 2-fold higher than the final Cmax in the cell plate (60 uL titrations were 1:3). 4. Viability Assay: This assay was performed as follows: • Transfer 50 μL of test compound solution per well from the test compound plate onto the cell plate prepared in Step #1. • Mix the plate with treated cells by pipetting up and down three times with 200 μL multi-channel pipette. • Incubate the cells in 5% CO2 incubator @ 37° C. for 4 days. • Run the CellTiter-Glo™ Luminescent Cell Viability Assay.
The results of this assay, given as EC50 values, indicate the concentration of test compound that inhibits tumor cell proliferation by 50%.

T1 sequence (Q9Y463 whole entry): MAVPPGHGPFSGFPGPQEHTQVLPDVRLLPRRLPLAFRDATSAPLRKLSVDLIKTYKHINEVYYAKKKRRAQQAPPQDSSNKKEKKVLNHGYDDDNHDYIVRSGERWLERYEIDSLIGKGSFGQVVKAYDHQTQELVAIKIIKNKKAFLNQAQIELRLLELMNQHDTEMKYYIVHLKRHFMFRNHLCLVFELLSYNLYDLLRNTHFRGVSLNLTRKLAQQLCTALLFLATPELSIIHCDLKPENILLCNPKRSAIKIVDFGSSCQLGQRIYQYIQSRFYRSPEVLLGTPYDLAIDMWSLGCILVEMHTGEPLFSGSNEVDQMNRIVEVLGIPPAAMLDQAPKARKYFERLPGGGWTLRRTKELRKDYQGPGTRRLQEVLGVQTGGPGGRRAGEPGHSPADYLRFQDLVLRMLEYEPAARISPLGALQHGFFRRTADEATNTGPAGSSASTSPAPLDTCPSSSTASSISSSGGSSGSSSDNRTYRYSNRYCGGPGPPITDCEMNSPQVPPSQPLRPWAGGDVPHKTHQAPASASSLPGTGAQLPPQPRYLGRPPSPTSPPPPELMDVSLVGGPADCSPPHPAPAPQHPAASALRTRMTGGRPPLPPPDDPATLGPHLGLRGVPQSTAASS

Q: What does the source list for COC(=O)c1ccc(Cl)c(NC(=O)c2cc3cnc(OC)cc3[nH]c2=O)c1 [Example 30, 4-Chloro-3-[(7-methoxy-2-oxo-1,2-dihydro-[1,6]naphthyridine-3-carbonyl)-amino]-benzoic acid methyl ester]?
A: IC50 (Human DYRK1B): 0.119 µM; IC50 (Human DYRK1A): 0.135 µM; EC50 [1]: > 10 µM

Q: With COc1cc2[nH]c(=O)c(C(=O)Nc3cc(C(=O)NCc4ccccc4)ccc3C)cc2cn1 [Example 33, 7-Methoxy-2-oxo-1,2-dihydro-[1,6]naphthyridine-3-carboxylic acid (5-benzylcarbamoyl-2-methyl-phenyl)-amide] as the compound, how does the IC50 (Human DYRK1B) read?
A: 0.484 µM

Q: And the IC50 (Human DYRK1A)?
A: 2.15 µM

Q: And the EC50 [1]?
A: 1.47 µM

Q: What does the source list for COc1cc2[nH]c(=O)c(C(=O)Nc3cc(C(=O)NCc4cccs4)ccc3C)cc2cn1 [Example 37, 7-Methoxy-2-oxo-1,2-dihydro-[1,6]naphthyridine-3-carboxylic acid {2-methyl-5-[(thiophen-2-ylmethyl)-carbamoyl]-phenyl}-amide]?
A: IC50 (Human DYRK1B): 0.917 µM; IC50 (Human DYRK1A): 0.588 µM; EC50 [1]: 0.47 µM

Q: What does the source list for COc1cc2[nH]c(=O)c(C(=O)Nc3cc(C(=O)NCc4ccsc4)ccc3C)cc2cn1 [Example 38, 7-Methoxy-2-oxo-1,2-dihydro-[1,6]naphthyridine-3-carboxylic acid {2-methyl-5-[(thiophen-3-ylmethyl)-carbamoyl]-phenyl}-amide]?
A: IC50 (Human DYRK1B): 0.424 µM; IC50 (Human DYRK1A): 0.266 µM; EC50 [1]: > 10 µM

Q: Which results are given for COc1cc2[nH]c(=O)c(C(=O)Nc3cc(C(=O)NCc4ccsc4)ccc3Cl)cc2cn1 [Example 43, 7-Methoxy-2-oxo-1,2-dihydro-[1,6]naphthyridine-3-carboxylic acid {2-chloro-5-[(thiophen-3-ylmethyl)-carbamoyl]-phenyl}-amide]?
A: IC50 (Human DYRK1B): 0.041 µM; IC50 (Human DYRK1A): 0.028 µM; EC50 [1]: > 10 µM

Q: COc1cc2[nH]c(=O)c(C(=O)Nc3cc(C(=O)NC(CN)c4ccccc4)ccc3Cl)cc2cn1 (stereo not shown) [Example 45, 7-Methoxy-2-oxo-1,2-dihydro-[1,6]naphthyridine-3-carboxylic acid [5-(2-amino-1-phenyl-ethylcarbamoyl)-2-chloro-phenyl]-amide; hydrochloride] was tested. Which IC50 (Human DYRK1B) did it give?
A: 0.014 µM

Q: And the IC50 (Human DYRK1A)?
A: 0.0115 µM

Q: What about the EC50 [1] of the same compound?
A: 0.177 µM

Q: For COC(=O)c1ccc(C)c(NC(=O)c2cc3cnc(NCC(O)CO)cc3[nH]c2=O)c1 (stereo not shown) [Example 49, 3-{[7-(2,3-Dihydroxy-propylamino)-2-oxo-1,2-dihydro-[1,6]naphthyridine-3-carbonyl]-amino}-4-methyl-benzoic acid methyl ester; hydrochloride], which IC50 (Human DYRK1B) is on record?
A: 0.537 µM

Q: What about the IC50 (Human DYRK1A) of the same compound?
A: 0.3 µM

Q: What about the EC50 [1] of the same compound?
A: > 10 µM

Q: With COc1cc2[nH]c(=O)c(C(=O)Nc3cc(C(=O)NC(CN)c4cccc(Cl)c4)ccc3Cl)cc2cn1 (stereo not shown) [Example 51, 7-Methoxy-2-oxo-1,2-dihydro-[1,6]naphthyridine-3-carboxylic acid {5-[2-amino-1-(3-chloro-phenyl)-ethylcarbamoyl]-2-chloro-phenyl}-amide; hydrochloride] as the compound, how does the IC50 (Human DYRK1B) read?
A: 0.119 µM

Q: What about the IC50 (Human DYRK1A) of the same compound?
A: 0.0198 µM

Q: What about the EC50 [1] of the same compound?
A: 0.373 µM

Q: Which results are given for COc1cc2[nH]c(=O)c(C(=O)Nc3cc(C(=O)NC(CCN)c4ccsc4)ccc3Cl)cc2cn1 (stereo not shown) [Example 53, 7-Methoxy-2-oxo-1,2-dihydro-[1,6]naphthyridine-3-carboxylic acid [5-(3-amino-1-thiophen-3-yl-propylcarbamoyl)-2-chloro-phenyl]-amide]?
A: pIC50 (Human DYRK1B): 7.86; EC50 [1]: 0.0524 µM

Q: With COc1cc2[nH]c(=O)c(C(=O)Nc3cc(C(=O)NC(CN)c4ccccc4)ccc3C)cc2cn1 (stereo not shown) [Example 55, 7-Methoxy-2-oxo-1,2-dihydro-[1,6]naphthyridine-3-carboxylic acid [5-(2-amino-1-phenyl-ethylcarbamoyl)-2-methyl-phenyl]-amide; hydrochloride] as the compound, how does the IC50 (Human DYRK1B) read?
A: 0.0915 µM

Q: What about the IC50 (Human DYRK1A) of the same compound?
A: 0.0506 µM

Q: What about the EC50 [1] of the same compound?
A: 0.68 µM

Q: COc1cc2[nH]c(=O)c(C(=O)Nc3cc(C(=O)NC(CN)c4cccc(Cl)c4)ccc3C)cc2cn1 (stereo not shown) [Example 57, 7-Methoxy-2-oxo-1,2-dihydro-[1,6]naphthyridine-3-carboxylic acid {5-[2-amino-1-(3-chloro-phenyl)-ethylcarbamoyl]-2-methyl-phenyl}-amide; hydrochloride] was tested. Which IC50 (Human DYRK1B) did it give?
A: 0.146 µM

Q: And the IC50 (Human DYRK1A)?
A: 0.0512 µM

Q: And the EC50 [1]?
A: 0.496 µM

Q: Which results are given for COc1cc2[nH]c(=O)c(C(=O)Nc3cc(C(=O)NC(CN)c4ccsc4)ccc3Cl)cc2cn1 (stereo not shown) [Example 71, 7-Methoxy-2-oxo-1,2-dihydro-[1,6]naphthyridine-3-carboxylic acid [5-(2-amino-1-thiophen-3-yl-ethylcarbamoyl)-2-chloro-phenyl]-amide; hydrochloride]?
A: pIC50 (Human DYRK1B): > 8.34; EC50 [1]: 0.137 µM
